According to PMC7377239, “Cardiovascular Effects of Polychlorinated Biphenyls and Their Major Metabolites” (Environmental Health Perspectives, 2020):
Like-named read-outs stand apart in the source and are kept apart here.

Key:
HUVECs = test: Tube formation (tubulogenesis) assay in HUVECs, 18 h; type: cell-based, human; conditions: Homo sapiens, HUVEC, 18 h; for activity at 0.1 µM: 0.10 µM
In short: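 HUVECs (passage 1–5) seeded on reduced-growth-factor basement membrane and exposed to compounds overnight at 37°C, 5% CO2, in 2× maintenance medium with 12.5 ng/mL VEGF; 0.5% DMSO vehicle. Calcein AM-stained tube networks imaged and analysed; vehicle-normalized readouts fit to four-parameter logistic, POD set at one SD of vehicle means.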

[1] = tested on: iCell endothelial cells (human iPSC-derived ECs); test: High-content imaging cytotoxicity in iCell endothelial cells, 24 h; type: cell-based; conditions: Homo sapiens, Endothelial cell, 24 hr; for viability at 0.1 µM / activity at 0.1 µM: 0.10 µM
In short: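 Human iPSC-derived endothelial cells (passages 1–5) were grown to a fibronectin-coated monolayer, then exposed 24 h at 37 °C with 0.5% DMSO vehicle. Staining was Hoechst 33342, MitoTracker Orange and calcein AM, read by high-content imaging. Point of departure came from 4-parameter logistic fits, with a 1-SD vehicle cutoff and 100 µM as the top concentration.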

[2] = HUVECs, 0.00 µM = 100.00, read-out: huvec.mtl.18hr
[3] = HUVECs, 0.00 µM = 100.00, read-out: huvec.tlps.18hr
[4] = HUVECs, 0.00 µM = 100.00, read-out: huvec.tta.18hr
[5] = HUVECs, 0.00 µM = 100.00, read-out: huvec.ttl.18hr
[6] = iPSC-EC, 0.00 µM control = 100.00, read-out: endo.cyto.24hr
[7] = iPSC-EC, 0.00 µM control = 100.00, read-out: endo.mito.24hr
[8] = iPSC-EC, 0.00 µM control = 100.00, read-out: endo.mitoint.24hr
[9] = iPSC-EC, 0.00 µM control = 100.00, read-out: endo.nma.24hr
[10] = iPSC-EC, 0.00 µM control = 100.00, read-out: endo.tc.24hrs

COc1ccc(-c2cccc(Cl)c2)cc1Cl [4-OMe PCB11]
activity at 0.01 µM (HUVECs; [2]): 124%
activity at 0.01 µM (HUVECs; [3]): 137%
activity at 0.01 µM (HUVECs; [4]): 110%
activity at 0.01 µM (HUVECs; [5]): 93.8%
activity at 0.1 µM (HUVECs; [2]): 107%
activity at 0.1 µM (HUVECs; [3]): 117%
activity at 0.1 µM (HUVECs; [4]): 99.7%
activity at 0.1 µM (HUVECs; [5]): 89.8%
activity at 1 µM (HUVECs; [2]): 102%
activity at 1 µM (HUVECs; [3]): 99.7%
activity at 1 µM (HUVECs; [4]): 108%
activity at 1 µM (HUVECs; [5]): 99.4%
activity at 10 µM (HUVECs; [2]): 89.2%
activity at 10 µM (HUVECs; [3]): 97.9%
activity at 10 µM (HUVECs; [4]): 78.8%
activity at 10 µM (HUVECs; [5]): 67.3%
activity at 100 µM (HUVECs; [2]): 71%
activity at 100 µM (HUVECs; [3]): 60.6%
activity at 100 µM (HUVECs; [4]): 70.4%
activity at 100 µM (HUVECs; [5]): 60.2%
minimal effective concentration (HUVECs; HUVECs, top concentration 100.00 µM, read-out: huvec.mtl.18hr POD): 9.33 µM
minimal effective concentration (HUVECs; HUVECs, top concentration 100.00 µM, read-out: huvec.tlps.18hr POD): 25.8 µM
minimal effective concentration (HUVECs; HUVECs, top concentration 100.00 µM, read-out: huvec.tta.18hr POD): 100 µM
minimal effective concentration (HUVECs; HUVECs, top concentration 100.00 µM, read-out: huvec.ttl.18hr POD): 1.22 µM
viability at 0.01 µM [1, 6]: 88.3%
activity at 0.01 µM [1, 7]: 88.6%
activity at 0.01 µM [1, 8]: 94.9%
activity at 0.01 µM [1, 9]: 107%
viability at 0.01 µM [1, 10]: 88.3%
viability at 0.1 µM [1, 6]: 101%
activity at 0.1 µM [1, 7]: 100%
activity at 0.1 µM [1, 8]: 87%
activity at 0.1 µM [1, 9]: 104%
viability at 0.1 µM [1, 10]: 101%
viability at 1 µM [1, 6]: 99.8%
activity at 1 µM [1, 7]: 99.2%
activity at 1 µM [1, 8]: 87.7%
activity at 1 µM [1, 9]: 100%
viability at 1 µM [1, 10]: 99.8%
viability at 10 µM [1, 6]: 100%
activity at 10 µM [1, 7]: 100%
activity at 10 µM [1, 8]: 97.5%
activity at 10 µM [1, 9]: 101%
viability at 10 µM [1, 10]: 100%
viability at 100 µM [1, 6]: 97.3%
activity at 100 µM [1, 7]: 98%
activity at 100 µM [1, 8]: 98.6%
activity at 100 µM [1, 9]: 102%
viability at 100 µM [1, 10]: 97.3%
minimal effective concentration ([1]; iPSC-EC, top concentration 100.00 µM, read-out: endo.cyto.24hr POD): 100 µM
minimal effective concentration ([1]; iPSC-EC, top concentration 100.00 µM, read-out: endo.mito.24hr POD): 100 µM
minimal effective concentration ([1]; iPSC-EC, top concentration 100.00 µM, read-out: endo.mitoint.24hr POD): 100 µM
minimal effective concentration ([1]; iPSC-EC, top concentration 100.00 µM, read-out: endo.nma.24hr POD): 100 µM
minimal effective concentration ([1]; iPSC-EC, top concentration 100.00 µM, read-out: endo.tc.24hrs POD): 100 µM

Clc1cc(Cl)c(-c2cc(Cl)c(Cl)cc2Cl)cc1Cl [PCB 153, 2,2′,4,4′,5,5′-hexachlorobiphenyl]
minimal effective concentration (HUVECs; tube formation mtl, read-out: POD huvec.mtl.18hr): 19.8 µM
minimal effective concentration (HUVECs; tube formation tlps, read-out: POD huvec.tlps.18hr): 61.8 µM
minimal effective concentration (HUVECs; tube formation tta, read-out: POD huvec.tta.18hr): 8.87 µM
minimal effective concentration (HUVECs; tube formation ttl, read-out: POD huvec.ttl.18hr): 0.13 µM
minimal effective concentration ([1]; endothelial cells (endo), cyto, read-out: POD endo.cyto.24hr): 18.6 µM
minimal effective concentration ([1]; endothelial cells (endo), mito, read-out: POD endo.mito.24hr): 18.6 µM
minimal effective concentration ([1]; endothelial cells (endo), mitoint, read-out: POD endo.mitoint.24hr): 0.07 µM
minimal effective concentration ([1]; endothelial cells (endo), nma, read-out: POD endo.nma.24hr): 62.5 µM
minimal effective concentration ([1]; endothelial cells (endo), tc, read-out: POD endo.tc.24hr): 49.2 µM
